Measurements as given in US8778966B2, “Quinolinone derivatives as PARP and tank inhibitors” (Janssen Pharmaceutica, NV, priority 2007, dated 2014).

What was measured:
[1] = target: T1, TANK-2 enzyme (Homo sapiens, UniProt Q9H2K2); test: In vitro Scintillation Proximity Assay (SPA) for TANK-2 inhibitory activity; assay type: biochemical; details: read-out: in vitro SPA assay TANK-2 pIC50 (converted)
T1 construct: made in house
T1 sequence (Q9H2K2 1-1166): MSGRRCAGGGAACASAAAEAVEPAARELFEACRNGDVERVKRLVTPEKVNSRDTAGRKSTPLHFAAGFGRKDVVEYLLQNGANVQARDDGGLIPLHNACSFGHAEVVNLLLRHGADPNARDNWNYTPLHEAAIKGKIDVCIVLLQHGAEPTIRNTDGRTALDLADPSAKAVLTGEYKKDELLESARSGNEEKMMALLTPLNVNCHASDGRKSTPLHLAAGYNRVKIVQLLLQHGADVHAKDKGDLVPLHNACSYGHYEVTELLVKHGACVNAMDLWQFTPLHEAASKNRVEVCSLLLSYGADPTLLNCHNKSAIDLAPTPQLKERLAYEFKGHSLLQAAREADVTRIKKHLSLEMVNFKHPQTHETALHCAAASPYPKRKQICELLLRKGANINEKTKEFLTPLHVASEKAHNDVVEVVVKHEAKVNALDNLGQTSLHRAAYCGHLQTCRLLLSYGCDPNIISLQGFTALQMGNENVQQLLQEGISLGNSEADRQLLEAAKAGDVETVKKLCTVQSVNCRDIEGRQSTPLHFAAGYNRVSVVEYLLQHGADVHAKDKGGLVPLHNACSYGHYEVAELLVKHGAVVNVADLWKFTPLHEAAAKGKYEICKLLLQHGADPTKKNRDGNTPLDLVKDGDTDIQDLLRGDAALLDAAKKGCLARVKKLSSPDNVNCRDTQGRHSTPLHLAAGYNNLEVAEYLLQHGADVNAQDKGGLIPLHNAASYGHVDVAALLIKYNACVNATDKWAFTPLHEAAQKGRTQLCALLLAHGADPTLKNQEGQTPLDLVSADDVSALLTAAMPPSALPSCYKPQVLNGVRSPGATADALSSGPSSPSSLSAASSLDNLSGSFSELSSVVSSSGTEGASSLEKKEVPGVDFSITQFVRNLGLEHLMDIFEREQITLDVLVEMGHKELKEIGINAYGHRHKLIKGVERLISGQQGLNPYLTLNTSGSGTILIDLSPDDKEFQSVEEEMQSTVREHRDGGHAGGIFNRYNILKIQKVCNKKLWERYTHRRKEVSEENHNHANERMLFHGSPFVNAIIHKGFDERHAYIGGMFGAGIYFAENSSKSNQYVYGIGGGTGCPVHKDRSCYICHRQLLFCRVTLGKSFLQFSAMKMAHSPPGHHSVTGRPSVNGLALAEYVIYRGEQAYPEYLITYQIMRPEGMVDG
Procedure, shortened: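 Results are pIC50 values, with IC50 interpolated linearly around 50% of blank-subtracted control cpm. They come from a scintillation proximity read of TANK-2 (8 μg/ml) self-modification with [3H]-NAD+/NAD, incubated 120 min at room temperature in pH 7.4 Tris buffer containing MgCl2 and DTT. Compounds were first screened at 10^−5 M.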

[2] = tested on: PC3 cells; test: EB1 Comet (microtubule disruption) assay; assay type: cell-based, human; details: 1 hour treatment; for minimal effective concentration: Homo sapiens, PC-3, 1 h, read-out: EB1 pLAC (converted)
Procedure, shortened: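 Readout is loss of Eb1 plus-end foci, scored by immunofluorescence microscopy, in PC3 cells after 1 h compound treatment at 37 °C with 0.6% final DMSO. LAC is defined as the lowest concentration leaving at least 50% of cells without Eb1 foci.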

IC50 [1] [nM]	Compound	minimal effective concentration [2] [µM]	EB1 pLAC [2]
200	Cc1cc2ccc([C@](C)(C#N)Cc3cccc(C#N)c3)cc2[nH]c1=O [Compound 36]	0.316	
79.4	Cc1cc2ccc(C(C)(C#N)Cc3cccc(Cl)c3)cc2[nH]c1=O (stereo not shown) [Compound 37]	3.16	
1580	CCc1cc2ccc(C(C)(C#N)Cc3cccc(OC[C@@H](O)CO)c3)cc2[nH]c1=O (stereo partly shown) [Compound 56]	3.16	
398	CCc1cc2ccc(C(C)(C#N)Cc3cccc(CCC#N)c3)cc2[nH]c1=O (stereo not shown) [Compound 169]		6
794	CCc1cc2ccc(C(C)(C#N)Cc3cccc(CNS(C)(=O)=O)c3)cc2[nH]c1=O (stereo not shown) [Compound 170]	3.16	
794	C=Cc1cccc(CC(C)(C#N)c2ccc3cc(CC)c(=O)[nH]c3c2)c1 (stereo not shown) [Compound 172]	0.1	
100	CCc1cc2cc(F)c(C(C)(C#N)Cc3cccc(C#N)c3)cc2[nH]c1=O (stereo not shown) [Compound 175]	1	
158	CCc1c(C)c2ccc(C(C)(C#N)Cc3cccc(C#N)c3)cc2[nH]c1=O (stereo not shown) [Compound 181]	0.316	
794	CCc1cc2ccc(C(C)(C#N)Cc3cccc(C#CCO)c3)cc2[nH]c1=O (stereo not shown) [Compound 183]	< 0.0316	
316	CCc1cc2ccc(C(F)(C#N)Cc3ccccc3)cc2[nH]c1=O (stereo not shown) [Compound 187]	5.62	
2510	CCc1cc2ccc(C(C)(C#N)CN(C)Cc3ccccc3)cc2[nH]c1=O (stereo not shown) [Compound 189]	1	
794	CCc1cc2ccc(C(C)(C#N)C(C)c3ccccc3)cc2[nH]c1=O (stereo not shown) [Compound 198]	0.316	
1260	CCc1cc2ccc([C@](C)(C#N)[C@H](C)c3ccccc3)cc2[nH]c1=O [Compound 200]	0.316	
398	C#Cc1cccc(CC(C)(C#N)c2ccc3cc(CC)c(=O)[nH]c3c2)n1 (stereo not shown) [Compound 211]	0.1	
126	CCc1cc2ccc(C(C)(C#N)Cc3cccc(N(C)C)n3)cc2[nH]c1=O (stereo not shown) [Compound 213]	0.316	
50.1	CCc1cc2ccc(C(C)(C#N)Cc3cccc(I)n3)cc2[nH]c1=O (stereo not shown) [Compound 214]	0.1	
2000	CCOC(=O)c1cccc(CC(C)(C#N)c2ccc3cc(CC)c(=O)[nH]c3c2)n1 (stereo not shown) [Compound 215]	0.316	
1260	CCc1cc2ccc(C(C)(C#N)Cc3cccc(COC)n3)cc2[nH]c1=O (stereo not shown) [Compound 216]	1	
398	CCc1cc2ccc(C(C)(C#N)Cc3cccc(OCCOC)n3)cc2[nH]c1=O (stereo not shown) [Compound 219]	1	
251	CCc1cc2ccc(C(C)(C#N)Cc3cccc(CN)n3)cc2[nH]c1=O (stereo not shown) [Compound 221]	3.16	
316	CCc1cc2ccc(C(C)(C#N)Cc3cccc(CN)c3)cc2[nH]c1=O (stereo not shown) [Compound 290]	3.16	
126	CCc1cc2ccc(C(C)(C#N)Cc3cccc(/C=C/S(C)(=O)=O)c3)cc2[nH]c1=O (stereo not shown) [Compound 292]	0.1	
1000	CCc1c(Cl)c2ccc(C(C)(C#N)Cc3cccc(C#N)c3)cc2[nH]c1=O (stereo not shown) [Compound 293]	1	
1580	CCc1cc2ccc(C(C)(C#N)Cc3cccc(C#CCOC)c3)cc2[nH]c1=O (stereo not shown) [Compound 297]	0.1	
1580	CCc1cc2ccc(C(C)(C#N)Cc3cccc(C#CCN(C)C)c3)cc2[nH]c1=O (stereo not shown) [Compound 298]	1	

IC50 [1] [nM]	Compound	minimal effective concentration [2] [µM]	EB1 pLAC [2]
79.4	CCc1cc2ccc(C(C)(C#N)CNCc3cccc(C#N)c3)cc2[nH]c1=O (stereo not shown) [Compound 301]	3.16	
126	CCc1cc2ccc(C(C)(C#N)Cc3cnc(Cl)nc3Cl)cc2[nH]c1=O (stereo not shown) [Compound 306]	3.16	
2000	CCOc1cc(OCC)nc(CC(C)(C#N)c2ccc3cc(CC)c(=O)[nH]c3c2)n1 (stereo not shown) [Compound 309]	3.16	
251	CCc1cc2ccc(C(C)(C#N)Cc3cccc(Cl)n3)cc2[nH]c1=O (stereo not shown) [Compound 310]	1	
1260	CCc1cc2ccc(C(C)(C#N)Cc3ncc(C)c(OC)c3C)cc2[nH]c1=O (stereo not shown) [Compound 311]	3.16	
316	CCc1cc2ccc(C(C)(C#N)Cc3cccc(C#N)n3)cc2[nH]c1=O (stereo not shown) [Compound 329]	0.316	
501	CCCn1ccnc1CC(C)(C#N)c1ccc2cc(CC)c(=O)[nH]c2c1 (stereo not shown) [Compound 335]	10	
100	CCc1cc2ccc(C(C)(C#N)Cc3ccc4ccccc4n3)cc2[nH]c1=O (stereo not shown) [Compound 336]	1	
631	CCc1cc2ccc(C(C)(C#N)Cc3nccn3CC)cc2[nH]c1=O (stereo not shown) [Compound 337]	1	
501	CCc1cc2ccc(C(C)(C#N)Cc3nc4ccccc4n3C)cc2[nH]c1=O (stereo not shown) [Compound 338]	1	
398	CCc1cc2ccc(C(C)(C#N)Cc3cccc(C)n3)cc2[nH]c1=O (stereo not shown) [Compound 343]	3.16	
316	CCc1cc2ccc(C(C)(C#N)Cc3cccc(Br)n3)cc2[nH]c1=O (stereo not shown) [Compound 344]	0.316	
631	CCc1cc2ccc(C(C)(C#N)Cc3ccc(OC)nc3)cc2[nH]c1=O (stereo not shown) [Compound 352]	1	
79.4	CCc1cc2ccc(C(C)(C#N)Cc3cnc(OC)nc3Cl)cc2[nH]c1=O (stereo not shown) [Compound 356]	0.1	
79.4	CCc1cc2ccc(C(C)(C#N)Cc3cnc(OC)nc3OC)cc2[nH]c1=O (stereo not shown) [Compound 357]	0.316	
100	CCc1cc2ccc(C(C)(C#N)Cc3nc(Cl)cc(N(C)C)n3)cc2[nH]c1=O (stereo not shown) [Compound 359]	0.1	
126	CCc1cc2ccc(C(C)(C#N)Cc3nccc(OC)n3)cc2[nH]c1=O (stereo not shown) [Compound 360]	1	
158	CCc1cc2ccc(C(C)(C#N)Cc3cc(OCCOC)nc(C)n3)cc2[nH]c1=O (stereo not shown) [Compound 363]	1	
100	CCc1cc2ccc(C(C)(C#N)Cc3cc(N(C)C)nc(Cl)n3)cc2[nH]c1=O (stereo not shown) [Compound 364]	1	
158	CCc1cc2ccc(C(C)(C#N)Cc3cc(OC)nc(C)n3)cc2[nH]c1=O (stereo not shown) [Compound 366]	< 0.0316	
158	CCc1cc2ccc(C(C)(C#N)Cc3cc(OCCOC)nc(Cl)n3)cc2[nH]c1=O (stereo not shown) [Compound 367]	1	
158	CCc1cc2ccc(C(C)(C#N)Cc3nc(C)cc(C)n3)cc2[nH]c1=O (stereo not shown) [Compound 368]	1	
631	CCc1cc2ccc(C(C)(C#N)Cc3nccc(OCCOC)n3)cc2[nH]c1=O (stereo not shown) [Compound 369]	3.16	
251	CCc1cc2ccc(C(C)(C#N)Cc3nc(Cl)cc(OCCOC)n3)cc2[nH]c1=O (stereo not shown) [Compound 370]	1	

Compound	IC50 [1] [nM]	minimal effective concentration [2] [µM]	EB1 pLAC [2]
CCc1cc2ccc(C(C)(C#N)Cc3cccc(C#C[Si](C)(C)C)n3)cc2[nH]c1=O (stereo not shown) [Compound 210]	3980	0.316	
